One block for each molecule: values may come before it. Calls of active or inactive are those of the source.
How the values were obtained:
[1] = molecular target: T1, Apoptotic protease-activating factor 1 (Homo sapiens, UniProt O14727); experiment: activation of Apaf-1 mediated apoptosis – fluorescent, uHTS hits, dose response (AID 588554); assay type: functional
T1 sequence (O14727 whole entry): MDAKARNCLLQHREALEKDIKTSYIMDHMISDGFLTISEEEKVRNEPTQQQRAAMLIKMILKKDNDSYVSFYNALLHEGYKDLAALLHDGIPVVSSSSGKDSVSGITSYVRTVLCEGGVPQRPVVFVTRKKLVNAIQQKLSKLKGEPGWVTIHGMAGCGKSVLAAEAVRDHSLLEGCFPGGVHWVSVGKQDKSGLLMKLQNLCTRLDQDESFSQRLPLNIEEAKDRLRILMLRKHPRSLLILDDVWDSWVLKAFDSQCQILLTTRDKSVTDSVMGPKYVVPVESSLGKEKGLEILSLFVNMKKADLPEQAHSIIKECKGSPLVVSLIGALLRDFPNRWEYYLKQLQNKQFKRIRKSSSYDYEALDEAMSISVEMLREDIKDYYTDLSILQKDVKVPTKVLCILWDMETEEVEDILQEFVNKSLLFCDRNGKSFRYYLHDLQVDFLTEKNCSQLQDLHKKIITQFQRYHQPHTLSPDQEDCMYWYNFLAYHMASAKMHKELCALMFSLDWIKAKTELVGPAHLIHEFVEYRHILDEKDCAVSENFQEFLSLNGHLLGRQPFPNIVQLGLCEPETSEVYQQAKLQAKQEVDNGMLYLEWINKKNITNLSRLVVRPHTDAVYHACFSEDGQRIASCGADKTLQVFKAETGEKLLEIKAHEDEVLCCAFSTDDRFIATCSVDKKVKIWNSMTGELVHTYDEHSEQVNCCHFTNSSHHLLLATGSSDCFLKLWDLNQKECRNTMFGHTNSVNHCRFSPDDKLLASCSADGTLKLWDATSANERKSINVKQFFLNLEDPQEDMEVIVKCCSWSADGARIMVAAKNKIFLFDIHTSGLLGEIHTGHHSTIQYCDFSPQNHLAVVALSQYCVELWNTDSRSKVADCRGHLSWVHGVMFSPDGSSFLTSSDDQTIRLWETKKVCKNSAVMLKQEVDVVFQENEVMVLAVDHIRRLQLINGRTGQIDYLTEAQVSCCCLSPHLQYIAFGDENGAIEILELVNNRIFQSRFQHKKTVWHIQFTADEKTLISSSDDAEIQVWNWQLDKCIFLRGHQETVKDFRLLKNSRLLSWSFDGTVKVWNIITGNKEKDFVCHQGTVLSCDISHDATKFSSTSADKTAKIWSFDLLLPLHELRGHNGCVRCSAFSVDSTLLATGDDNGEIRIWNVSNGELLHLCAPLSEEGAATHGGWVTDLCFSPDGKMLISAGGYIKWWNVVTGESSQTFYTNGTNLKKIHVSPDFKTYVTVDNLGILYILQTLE

[2] = molecular target: T2, Small ubiquitin-related modifier 1 (Homo sapiens, UniProt P63165); experiment: inhibitors of SUMO1 peptide binding, dose response, biochemical, fluorescence polarization, uHTS hits (AID 624382); assay type: functional; settings: read-out: IC50_Mean
T2 sequence (P63165 whole entry): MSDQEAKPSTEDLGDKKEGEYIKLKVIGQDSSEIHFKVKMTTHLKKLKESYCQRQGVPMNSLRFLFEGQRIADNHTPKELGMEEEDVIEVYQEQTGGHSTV

[3] = molecular target: DNA dC->dU-editing enzyme APOBEC-3G (Homo sapiens, UniProt Q9HC16); experiment: Dose Response confirmation of small molecule APOBEC3G DNA Deaminase Inhibitors via a fluorescence-based single-stranded DNA deaminase assay. [Related pubchem assays (depositor defined):AID493012, AID493028]; assay type: functional
Chain of DNA dC->dU-editing enzyme APOBEC-3G (Q9HC16 whole entry): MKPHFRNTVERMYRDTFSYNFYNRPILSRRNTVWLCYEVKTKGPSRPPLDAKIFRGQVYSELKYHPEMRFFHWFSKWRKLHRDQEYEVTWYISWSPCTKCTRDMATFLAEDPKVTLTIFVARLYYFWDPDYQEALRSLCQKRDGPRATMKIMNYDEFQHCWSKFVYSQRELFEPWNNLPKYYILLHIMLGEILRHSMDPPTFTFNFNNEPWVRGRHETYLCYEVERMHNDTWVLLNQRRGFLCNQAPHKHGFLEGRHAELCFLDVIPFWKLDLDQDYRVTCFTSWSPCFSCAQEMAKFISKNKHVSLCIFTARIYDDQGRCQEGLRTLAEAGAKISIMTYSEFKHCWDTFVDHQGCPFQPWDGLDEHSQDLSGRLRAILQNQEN

[4] = molecular target: DNA dC->dU-editing enzyme APOBEC-3A (Homo sapiens, UniProt P31941); experiment: APOBEC3A DNA deaminase inhibitors, dose response, biochemical (AID 504722); assay type: functional
Chain of DNA dC->dU-editing enzyme APOBEC-3A (P31941 whole entry): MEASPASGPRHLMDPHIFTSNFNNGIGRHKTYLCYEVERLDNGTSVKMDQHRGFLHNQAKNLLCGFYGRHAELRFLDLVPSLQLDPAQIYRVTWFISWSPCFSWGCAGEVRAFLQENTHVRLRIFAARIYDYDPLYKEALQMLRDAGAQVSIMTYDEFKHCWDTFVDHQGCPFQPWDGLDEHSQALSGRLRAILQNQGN

[5] = molecular target: T2, Small ubiquitin-related modifier 1; experiment: inhibitors of SUMO1 partner interactions, dose response, biochemical, FRET (AID 624383); assay type: functional; settings: read-out: IC50_Mean
[6] = molecular target: Dual specificity protein kinase CLK1 (Homo sapiens, UniProt P49759); experiment: CLK1 kinase inhibitors, off-target check, dose response, selectivity assay for Dyrk1A inhibitor project, biochemical, cherry-picked samples (AID 588811)
Chain of Dual specificity protein kinase CLK1 (P49759 whole entry): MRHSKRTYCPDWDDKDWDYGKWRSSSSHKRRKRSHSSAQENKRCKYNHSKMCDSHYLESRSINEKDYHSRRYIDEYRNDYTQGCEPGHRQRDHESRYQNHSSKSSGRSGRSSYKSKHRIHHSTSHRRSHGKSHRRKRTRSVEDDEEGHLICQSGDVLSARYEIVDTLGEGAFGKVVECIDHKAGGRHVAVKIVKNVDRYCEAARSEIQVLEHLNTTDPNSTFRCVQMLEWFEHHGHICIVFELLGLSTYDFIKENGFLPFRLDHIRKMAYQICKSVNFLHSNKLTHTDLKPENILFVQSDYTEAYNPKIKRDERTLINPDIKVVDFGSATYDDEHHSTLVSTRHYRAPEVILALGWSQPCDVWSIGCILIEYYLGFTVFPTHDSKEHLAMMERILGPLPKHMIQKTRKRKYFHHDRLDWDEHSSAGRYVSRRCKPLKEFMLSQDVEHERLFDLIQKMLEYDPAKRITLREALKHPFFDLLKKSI

[7] = cytotoxicity in NIH/3T3 mouse fibroblasts, dose response, cytotoxicity control, cell-based, mouse embryonic fibroblasts, dry powder, set 2 (AID 493247); assay type: functional; settings: Fibroblast
[8] = tested on: Trypanosoma cruzi; experiment: growth inhibition of intracellular Trypanosoma cruzi, dose response, cell-based, plate reader, dry powder, set 3 (AID 493197); assay type: functional
[9] = inhibitors of Trypanosoma cruzi host-cell infection, confirmation, beta-gal luminescence, NIH3T3 host cells (AID 2630); assay type: functional, cell-based; settings: Mus musculus
[10] = molecular target: T3, Hexokinase HKDC1 (Homo sapiens, UniProt Q2TB90); experiment: HKDC1 hexokinase inhibitors, SAR follow-up, biochemical, set 2 (AID 588355); assay type: functional
T3 sequence (Q2TB90 whole entry): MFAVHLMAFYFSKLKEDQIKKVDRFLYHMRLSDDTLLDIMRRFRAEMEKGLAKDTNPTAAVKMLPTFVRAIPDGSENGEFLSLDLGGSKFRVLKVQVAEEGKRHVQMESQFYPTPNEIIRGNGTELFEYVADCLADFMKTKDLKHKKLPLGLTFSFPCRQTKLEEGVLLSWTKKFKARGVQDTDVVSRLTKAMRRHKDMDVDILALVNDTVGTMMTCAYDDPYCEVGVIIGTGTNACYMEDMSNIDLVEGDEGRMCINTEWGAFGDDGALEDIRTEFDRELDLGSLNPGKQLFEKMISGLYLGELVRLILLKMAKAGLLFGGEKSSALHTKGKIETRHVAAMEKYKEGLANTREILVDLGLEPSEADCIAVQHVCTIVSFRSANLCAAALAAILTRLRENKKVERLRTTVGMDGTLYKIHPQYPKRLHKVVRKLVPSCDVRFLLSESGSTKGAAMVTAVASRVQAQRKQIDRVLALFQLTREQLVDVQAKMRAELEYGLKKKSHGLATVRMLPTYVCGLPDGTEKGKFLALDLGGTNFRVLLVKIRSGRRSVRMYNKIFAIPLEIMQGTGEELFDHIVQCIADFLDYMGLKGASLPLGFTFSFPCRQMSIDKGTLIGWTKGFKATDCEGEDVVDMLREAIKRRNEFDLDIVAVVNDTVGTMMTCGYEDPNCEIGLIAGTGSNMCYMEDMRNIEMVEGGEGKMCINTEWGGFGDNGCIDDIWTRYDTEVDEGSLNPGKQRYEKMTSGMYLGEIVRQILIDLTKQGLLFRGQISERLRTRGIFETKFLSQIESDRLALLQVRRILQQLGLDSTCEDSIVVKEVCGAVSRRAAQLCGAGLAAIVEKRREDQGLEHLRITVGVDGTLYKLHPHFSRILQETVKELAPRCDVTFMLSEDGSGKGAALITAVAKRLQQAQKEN

[11] = molecular target: T4, Hexokinase-1 (Homo sapiens, UniProt P19367); experiment: HK1 enzyme inhibition by HKDC1 hits, SAR follow-up, selectivity assay for HKDC1 inhibitor project, biochemical, set 2, resazurin fluorescence coupled readout (AID 588356); assay type: functional
T4 sequence (P19367 whole entry): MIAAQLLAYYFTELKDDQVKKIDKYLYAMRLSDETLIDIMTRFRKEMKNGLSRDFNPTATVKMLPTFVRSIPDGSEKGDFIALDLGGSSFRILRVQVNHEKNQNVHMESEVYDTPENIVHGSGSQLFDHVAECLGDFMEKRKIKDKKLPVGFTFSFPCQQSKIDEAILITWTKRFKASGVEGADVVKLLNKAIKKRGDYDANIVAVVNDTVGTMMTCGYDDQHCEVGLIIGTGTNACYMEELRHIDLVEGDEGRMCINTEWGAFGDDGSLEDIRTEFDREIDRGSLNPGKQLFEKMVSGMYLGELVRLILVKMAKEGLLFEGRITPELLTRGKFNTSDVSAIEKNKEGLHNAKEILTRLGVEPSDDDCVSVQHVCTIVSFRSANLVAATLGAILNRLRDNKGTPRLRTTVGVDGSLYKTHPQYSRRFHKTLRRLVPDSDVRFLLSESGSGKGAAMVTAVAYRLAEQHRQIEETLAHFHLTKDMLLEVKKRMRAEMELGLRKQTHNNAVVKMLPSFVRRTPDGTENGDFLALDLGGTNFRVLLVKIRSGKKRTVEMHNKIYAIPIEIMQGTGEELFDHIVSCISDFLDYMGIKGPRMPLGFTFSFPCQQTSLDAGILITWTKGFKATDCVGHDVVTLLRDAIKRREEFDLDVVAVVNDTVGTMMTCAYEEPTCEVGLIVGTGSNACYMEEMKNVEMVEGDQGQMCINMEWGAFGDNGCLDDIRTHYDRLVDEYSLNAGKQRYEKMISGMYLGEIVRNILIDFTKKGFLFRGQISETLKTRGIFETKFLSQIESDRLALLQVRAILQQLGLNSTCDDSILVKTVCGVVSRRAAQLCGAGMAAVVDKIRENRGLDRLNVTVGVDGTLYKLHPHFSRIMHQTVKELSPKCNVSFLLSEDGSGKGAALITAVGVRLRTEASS

Compound: C=C(C)C(=O)Nc1cccc(C2=NOC3(C2)C[C@H](C(N)=O)N(C(=O)c2ccccc2C(=O)c2ccccc2)C3)c1 (stereo partly specified)
EC50 [1]: 3.71 µM (active)
IC50 [2]: > 66.6 µM (inactive)
IC50 [3]: 8.19 µM (active)
IC50 [4]: > 100 µM (inactive)
IC50 [5]: 2.73 µM (active)

AC50 [6]: < 0.00195 µM (active)
Compound: CN(Cc1nccs1)c1ncnc2ccc(-c3ccc4c(c3)OCO4)cc12

Compound: COc1ccccc1CN1CCCC(C(=O)N(C)Cc2ccccc2)C1 (stereo unspecified)
AC50 [7]: 73.3 µM (active)
AC50 [8]: 10.8 µM (active)
EC50 [9]: 0.856 µM (active)

IC50 [10]: > 80 µM (inactive)
IC50 [11]: > 80 µM (inactive)
Compound: COc1cccc(N2C(=O)c3cccnc3C2Nc2ccc(C)c(C)c2)c1 (stereo unspecified)
